Test [1] is described as follows: Mouse Activity and Screen Test Procedure (MAST): inhibition of spontaneous locomotion and inverted screen test. Format: in vivo, Swiss-Webster male mice. To be noted: ip, 1 h, intraperitoneal, one hour prior to testing, mice, locomotion over 60 minutes, read-out: Dose at which an overall dose rating of A was obtained. An excerpt:
The compound of the invention are new chemical substances which are useful as pharmaceutical agents for the treatment of psychoses. The antipsychotic activity of representative compounds of the invention was established by the Mouse Activity and Screen Test Procedure (MAST) described below.
ANIMALS: Nine unfasted Swiss-Webster male mice (Buckberg Labs) weighing 20-30 g are equally divided into three groups for each drug dose to be tested. That is, data for each dose level was generated by three separate groups of three mice each.
DRUGS: A minimum of three dose levels (10, 30, and 100 mg/kg) are tested for each drug. Treatments are administered intraperitoneally one hour prior to testing. All dosages are calculated as parent compound and given in volumes of […]. Compounds are dissolved or suspended in 0.2% Methocel. Control animals are injected with Methocel.
TESTING: A two part testing procedure is started one hour postinjection. First, the screen test is performed (see Pharmac. Biochem. Behav. 6, 351-353, 1977). Briefly this test consists of placing mice on individual wire screens which are then rotated 180 degrees at the start of a 60-second observation period. The number of mice falling off the inverted screen is recorded.
Immediately following the screen test, the final phase of testing is initiated by placing each group of three mice in one actophotometer (Life Sciences, 22, 1067-1076, 1978). The actophotometer consists of a cylindrical chamber whose center is occupied by another cylinder which contains the illumination for six photocells located on the perimeter of the chamber. Six light-beam interruptions equal one count. Locomotor activity is recorded by computer at 10-minute intervals for 60 minutes.
DATA: The data obtained from the screen test are expressed as percent of mice falling off the screen. Data derived from locomotor activity of drug treated mice are compared to the activity of vehicle treated animals and are expressed as percent inhibition of spontaneous locomotion. All percentages reported for inhibition of locomotion are based upon data accumulated for one hour. Both phases of testing are graded: A=60-100%; C=31-59%; and N=0-30%. An overall dose rating is obtained by the following criteria: […]
Utilizing this procedure, an overall dose rating of A was obtained for the noted compound at the indicated dose as reported in Table 1.

Test [2] is described as follows: conditioned avoidance-escape procedure (modified pole-climb avoidance). Type of test: in vivo. To be noted: oral, male Wistar rat. As for the experimental part: In order to further assess their usefulness, representative compounds of the invention were tested in a conditioned avoidance-escape procedure. In this test*, an animal (male Wistar rat) is conditioned to respond to a stimulus in order to avoid an unpleasant electrical shock. Should the animals fail to give the response in order to avoid the shock, an escape route is available so that it can escape the shock once it is delivered. Preferably, compounds will show variations between the dose that will supress conditioned avoidance and the dose that will suppress the escape response.
*Modification of the pole-climb avoidance paradigm described in Ann. NY Acad. Sci., 740, (1957).

Test [3] is described as follows: Mouse Activity and Screen Test Procedure (MAST): inhibition of spontaneous locomotion and inverted screen test. Conditions: po, Compound administered orally, mice, read-out: Dose at which an overall dose rating of A was obtained. Type of test: in vivo, Swiss-Webster male mice.
The mark [4] stands for this setting: suppression of conditioned avoidance, read-out: Oral ED50 Avoidance.
Where [5] appears, read: suppression of escape response, read-out: Oral ED50 Escape.

Consider 20 compounds from patent publication US4469868A, “Alkylimidazo[1,2-c]pyrazolo[3,4-e]pyrimidines” (Warner-Lambert Company, priority 1982, dated 1984).

Structures can show the parent of a compound that is named as a salt. Where two headings read alike, the source gives them in different places.

Consider `CCCn1nc(C)c2c1C1=NC(C)CN1C(C)=N2` (centres unmarked) [R1=n-C3H7, R2=CH3, R3=CH3, R4=H, R5=CH3, 7,8-Dihydro-3,5,8-trimethyl-1-n-propyl-1H-imidazo[1,2-c]pyrazolo[3,4-e]pyrimidine], for which the minimal effective dose in test [1] was 100 mg/kg. The ED50 in test [2] (setting [4]) came out at 37 mg/kg; in test [2] (setting [5]) it was 90 mg/kg.

As for `CCC1=Nc2c(C)nn(C)c2C2=NCCN12` [R1=CH3, R2=CH3, R3=C2H5, R4=H, R5=H, 5-Ethyl-7,8-dihydro-1,3-dimethyl-1H-imidazo[1,2-c]pyrazolo[3,4-e]pyrimidine], in test [3], the minimal effective dose amounted to 90 mg/kg.

In the case of `CCC1=Nc2c(C)nn(C)c2C2=NC(C)CN12` (centres unmarked) [R1=CH3, R2=CH3, R3=C2H5, R4=H, R5=CH3, 7,8-Dihydro-5-ethyl-1,3,8-trimethyl-1H-imidazo[1,2-c]pyrazolo[3,4-e]pyrimidine], the median effective dose (ED50) is 6.4 mg/kg in test [2] (setting [4]) and 66 mg/kg in test [2] (setting [5]).

Regarding `CCC1=Nc2c(C)nn(C)c2C2=NCC(C)N12` (centres unmarked) [R1=CH3, R2=CH3, R3=C2H5, R4=CH3, R5=H, 7,8-Dihydro-5-ethyl-1,3,7-trimethyl-1H-imidazo[1,2-c]pyrazolo[3,4-e]pyrimidine], the minimal effective dose in test [1] is 100 mg/kg. Also, the ED50 was 35 mg/kg in test [2] (setting [4]) and 52 mg/kg in test [2] (setting [5]).

Regarding `CCc1nc2c(C)nn(C)c2c2nc(C)cn12` [5-Ethyl-1,3,8-trimethyl-1H-imidazo[1,2-c]pyrazolo[3,4-e]pyrimidine], the results for the ED50 in test [2] (setting [4]) and in test [2] (setting [5]) were 8 mg/kg and 45 mg/kg, respectively.

Regarding `Cc1nn(C)c2c1N=CN1CCN=C21` [R1=CH3, R2=CH3, R3=H, R4=H, R5=H, 7,8-Dihydro-1,3-dimethyl-1H-imidazo[1,2-c]pyrazolo [3,4-e]pyrimidine], the minimal effective dose in test [1] amounted to 100 mg/kg. The ED50 worked out at 18 mg/kg in test [2] (setting [4]) and 54 mg/kg in test [2] (setting [5]).

Regarding `CCn1nc(C)c2c1C1=NC(C)CN1C(C)=N2` (centres unmarked) [R1=C2H5, R2=CH3, R3=CH3, R4=H, R5=CH3, 7,8-Dihydro-1-ethyl-3,5,8-trimethyl-1H-imidazo[1,2-c]pyrazolo[3,4-e]pyrimidine], the ED50 was 5 mg/kg in test [2] (setting [4]) and 15 mg/kg in test [2] (setting [5]).

Turning to `CC1=Nc2c(C)nn(C)c2C2=NC(C)CN12` (racemic) [R1=CH3, R2=CH3, R3=CH3, R4=H, R5=CH3 (Racemate), 7,8-dihydro-1,3,5,8-tetramethyl-1H-imidazo[1,2-c]pyrazolo[3,4-e]pyrimidine], the ED50 in test [2] (setting [4]) is 10 mg/kg; in test [2] (setting [5]), 32 mg/kg.

As for `CC1=Nc2c(C)nn(C)c2C2=NC(C)C(C)N12` (centres unmarked) [R1=CH3, R2=CH3, R3=CH3, R4=CH3, R5=CH3, 7,8-dihydro-1,3,5,7,8-pentamethyl-1H-imidazo[1,2-c]pyrazolo[3,4-e]pyrimidine], the minimal effective dose in test [1] is 100 mg/kg. The median effective dose (ED50) in test [2] (setting [4]) was found to be 20 mg/kg; in test [2] (setting [5]), 57 mg/kg.

Take `CCC1=Nc2c(C)nn(CC)c2C2=NC(C)CN12` (centres unmarked) [R1=C2H5, R2=CH3, R3=C2H5, R4=H, R5=CH3, 1,5-Diethyl-7,8-dihydro-3,8-dimethyl-1H-imidazo[1,2-c]pyrazolo[3,4-e]pyrimidine]: the minimal effective dose in test [1] was determined as 100 mg/kg. Also, the results for the 50% effective dose (ED50) in test [2] (setting [4]) and in test [2] (setting [5]) were 9 mg/kg and 50 mg/kg, respectively.

Turning to `CC1=Nc2c(C)nn(C)c2C2=N[C@H](C)CN12` [R1=CH3, R2=CH3, R3=CH3, R4=H, R5=CH3 (R-isomer), 7,8-Dihydro-1,3,5-trimethyl-1H-imidazo[1,2-c]-pyrazolo[3,4-e]pyrimidine (R-form)], the 50% effective dose (ED50) in test [2] (setting [4]) and in test [2] (setting [5]) was under 65 mg/kg each time.

In the case of `CCC1CN2C(C)=Nc3c(C)nn(C)c3C2=N1` (centres unmarked) [R1=CH3, R2=CH3, R3=CH3, R4=H, R5=C2H5, 8-ethyl-7,8-dihydro-1,3,5-trimethyl-1H-imidazo[1,2-c]pyrazolo[3,4-e]pyrimidine], the ED50 in test [2] (setting [4]) was determined as 7.5 mg/kg; in test [2] (setting [5]), 32 mg/kg.

Consider `CC1=Nc2c(C)nn(C)c2C2=N[C@@H](C)CN12` [R1=CH3, R2=CH3, R3=CH3, R4=H, R5=CH3 (S-isomer), 7,8-Dihydro-1,3,5,8-tetramethyl-1H-imidazo[1,2-c]pyrazolo[3,4-e]pyrimidine (S-form)], for which, in test [1], the minimal effective dose was determined as 100 mg/kg. For the same compound, the ED50 stood at 11.5 mg/kg in test [2] (setting [4]) and 20 mg/kg in test [2] (setting [5]).

Turning to `CC1=Nc2c(C)nn(C)c2C2=NCC(C)(C)N12` [R1=CH3, R2=CH3, R3=CH3, R4=(CH3)2, R5=H2, 7,8-Dihydro-1,3,5,7,7-pentamethyl-1H-imidazo[1,2-c]pyrazolo[3,4-e]pyrimidine], the figures for the 50% effective dose (ED50) in test [2] (setting [4]) and in test [2] (setting [5]) were 32 mg/kg and 80 mg/kg, respectively.

Consider `Cc1nn(C)c2c1N=C(C1CC1)N1CC(C)N=C21` (centres unmarked) [5-Cyclopropyl-7,8-dihydro-1,3,8-trimethyl-1H-imidazo[1,2-c]pyrazolo[3,4-e]pyrimidine], for which the minimal effective dose in test [1] amounted to 100 mg/kg. Also, the values for the ED50 in test [2] (setting [4]) and in test [2] (setting [5]) were 11.5 mg/kg and 110 mg/kg, respectively.

For `CC1=Nc2c(C)nn(CC(F)(F)F)c2C2=NC(C)CN12` (centres unmarked) [R1=CF3CH2, R2=CH3, R3=CH3, R4=H, R5=CH3, 7,8-Dihydro-3,5,8-trimethyl-1-(2,2,2-trifluoroethyl)-1H-imidazo[1,2-c]pyrazolo[3,4-e]pyrimidine], the minimal effective dose in test [1] was determined as 100 mg/kg.

Consider `CC1=Nc2c(C)nn(C)c2C2=N[C@@H](C(C)C)CN12` [R1=CH3, R2=CH3, R3=CH3, R4=H, R5=i-C3H7 (S-isomer), 7,8-Dihydro-8-isopropyl-1,3,5-trimethyl-1H-imidazo[1,2-c]pyrazolo[3,4-e]pyrimidine dihydrochloride (S-form)], for which, in test [1], the minimal effective dose came out at 100 mg/kg. Further, the results for the ED50 in test [2] (setting [4]) and in test [2] (setting [5]) were 20 mg/kg and 70 mg/kg, respectively.

In the case of `CCn1nc(C)c2c1C1=NCCN1C(C)=N2` [R1=C2H5, R2=CH3, R3=CH3, R4=H, R5=H, 1-Ethyl-7,8-dihydro-3,5-dimethyl-1H-imidazo[1,2-c]pyrazolo[3,4-e]pyrimidine], the ED50 in test [2] (setting [4]) was found to be 10 mg/kg; in test [2] (setting [5]), 28 mg/kg.

On to `Cc1nn(C)c2c1N=CN1CC(C)N=C21` (centres unmarked) [R1=CH3, R2=CH3, R3=H, R4=H, R5=CH3, 7,8-Dihydro-1,3,8-trimethyl-1H-imidazo[1,2-c]pyrazolo[3,4-e]pyrimidine], for which, in test [1], the minimal effective dose was 100 mg/kg. The median effective dose (ED50) in test [2] (setting [4]) stood at 18 mg/kg; in test [2] (setting [5]), 56 mg/kg.

As for `CC1=Nc2c(C)nn(C)c2C2=NC(C)(C)CN12` [R1=CH3, R2=CH3, R3=CH3, R4=H2, R5=(CH3)2, 7,8-Dihydro-1,3,5,8,8-pentamethyl-1H-imidazo[1,2-c]pyrazolo[3,4-e]pyrimidine], the ED50 stood at 18 mg/kg in test [2] (setting [4]) and 120 mg/kg in test [2] (setting [5]).
